Results on 31 compounds are retold here after patent US20250136553A1, “ACYLSULFONAMIDE KAT6A INHIBITORS” (Olema Pharmaceuticals, Inc., priority 2023, published 2025).

Structures are written as SMILES.

Chain of human-KAT6A (MYST domain 507-778 aa) (Q92794 507-778): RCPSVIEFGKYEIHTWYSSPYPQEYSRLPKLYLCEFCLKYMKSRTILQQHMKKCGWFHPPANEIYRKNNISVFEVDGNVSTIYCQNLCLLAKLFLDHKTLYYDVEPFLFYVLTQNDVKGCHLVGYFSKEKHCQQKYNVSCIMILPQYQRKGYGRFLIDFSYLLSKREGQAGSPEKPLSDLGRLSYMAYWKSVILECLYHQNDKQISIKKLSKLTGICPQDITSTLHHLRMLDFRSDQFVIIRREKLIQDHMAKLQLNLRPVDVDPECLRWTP

The first experiment has as its target human-KAT6A (MYST domain 507-778 aa) (Homo sapiens (Human), UniProt Q92794). Briefly: KAT6A biochemical assay (TR-FRET). The following applies: @ 1 μM; reported where IC50 could not be determined; read-out: Percent inhibition at specific concentration (KAT6A). The text has this:
TR-FRET based methods were used for assaying compounds of the present invention for KAT6A enzyme inhibitory activity. TR-FRET is a homogeneous proximity assay where Europium-labelled anti-acetyl lysine antibody binds to the acetylated substrate labelled with biotin, which in turn binds to streptavidin-labelled APC fluorescence acceptor. Europium can transfer energy to APC in the complex and the interaction of two dye-labelled binding partners is detected by the energy transfer between a donor and an acceptor dye and the subsequent light emission by the acceptor dye. KAT6A transfer an acetyl group from acetyl CoA to lysine amino acids of histones/target proteins. […] The selected compound of the present invention and enzyme are incubated for 30 min on plate shaker at 300 rpm at 25° C. Next, 5 μL of substrate mix containing histone H4 peptide and acetyl-CoA in assay buffer is added to the plate. The final concentrations of H4 peptide and acetyl-CoA are 200 nM and 600 nM, respectively. Following 60 min reaction at 25° C. on plate shaker at 300 rpm, 5 μL of detection mix containing Europium-labelled anti-acetyl antibody and streptavidin-APC is added to the reaction wells. The plate is further incubated at 25° C. on shaker at 300 rpm and is read in TR-FRET mode (Ex:340 nm; Em: 615 nm and 665 nm) on a plate reader to achieve ˜5-7-fold activity. The percent inhibition was calculated from the ratio of the fluorescence (FL) intensities [(F665/F615)×10000) using the formula […]. IC50 values of the compounds were determined by fitting the dose-response data to sigmoidal curve fitting equation using Graph pad prism software V9.
(In TR-FRET formats the signal depends on donor and acceptor labels being close together.)
As for `COc1cccc(OC)c1S(=O)(=O)NC(=O)c1ccc(Cn2cccn2)c(OC)c1OC` [Compound 41, 4-((1H-pyrazol-1-yl)methyl)-N-((2,6-dimethoxyphenyl)sulfonyl)-2,3-dimethoxybenzamide], the inhibition at 1 µM was determined as 35%.

Staying with this experiment, now noted: @ 10 μM; reported where IC50 could not be determined; read-out: Percent inhibition at specific concentration (KAT6A).
For the compound `COc1ccc(Cn2cccn2)cc1C(=O)NS(=O)(=O)c1cc(C(C)(C)C)ccc1OC` [Compound 9, 5-((1H-pyrazol-1-yl)methyl)-N-((5-(tert-butyl)-2-methoxyphenyl)sulfonyl)-2-methoxybenzamide], the inhibition at 10 µM stood at 13%.

Still in this experiment, the particulars now being: KAT6A IC50 (nM), TR-FRET; histone H4 peptide 200 nM, acetyl-CoA 600 nM.
As for `COc1cc(C(=O)NS(=O)(=O)c2c(OC)cccc2OC)ccc1Cn1cccn1` [Compound 14, 4-((1H-pyrazol-1-yl)methyl)-N-((2,6-dimethoxyphenyl)sulfonyl)-3-methoxybenzamide], 7 nM corresponded to half-maximal inhibition (IC50).

Still in this experiment, the particulars now being: TR-FRET; histone H4 peptide 200 nM, acetyl-CoA 600 nM; read-out: KAT6A IC50.
Take `COc1cc(Cn2cccn2)ccc1C(=O)NS(=O)(=O)c1c(OC)cccc1OC` [Compound 1, 4-((1H-pyrazol-1-yl)methyl)-N-((2,6-dimethoxyphenyl)sulfonyl)-2-methoxybenzamide]: the IC50 (as a rule, the midpoint of a concentration-inhibition curve) was 247 nM.
The same measure, in the same setting: for `CCOc1cc(C(=O)NS(=O)(=O)c2cc(C(C)(C)C)ccc2OC)ccc1Cn1cccn1` [Compound 21, 4-((1H-pyrazol-1-yl)methyl)-N-((5-(tert-butyl)-2-methoxyphenyl)sulfonyl)-3-ethoxybenzamide] the value was 28 nM.
Same read-out and setting: as for `COc1ccc(C(C)(C)C)cc1S(=O)(=O)NC(=O)c1ccc(Cn2cccn2)cn1` [Compound 201, 5-((1H-pyrazol-1-yl)methyl)-N-((5-(tert-butyl)-2-methoxyphenyl)sulfonyl)picolinamide], the figure is 731 nM.
Still for that read-out and setting: as for `COc1cc(OC)c(S(=O)(=O)NC(=O)c2ccc(Cn3cccn3)c(OC)c2)cc1Cl` [Compound 44, 4-((1H-pyrazol-1-yl)methyl)-N-((5-chloro-2,4-dimethoxyphenyl)sulfonyl)-3-methoxybenzamide], the figure is 9 nM.
`COc1nc(C(=O)NS(=O)(=O)c2cccc3c2CCC3)ccc1Cn1cccn1` [Compound 233, 5-((1H-pyrazol-1-yl)methyl)-N-((2,3-dihydro-1H-inden-4-yl)sulfonyl)-6-methoxypicolinamide]: the IC50 worked out at 94 nM.
As for `CCc1nc(C(=O)NS(=O)(=O)c2c(OC)cccc2OC)ccc1Cn1cccn1` [Compound 265, 5-((1H-Pyrazol-1-yl)methyl)-N-((2,6-dimethoxyphenyl)sulfonyl)-6-ethylpicolinamide], the IC50 was found to be 14 nM.
In the case of `COc1cc(C(=O)NS(=O)(=O)c2c(OC)ccc(C3CC3)c2OC)ccc1Cn1cccn1` [Compound 61, 4-((1H-pyrazol-1-yl)methyl)-N-((3-cyclopropyl-2,6-dimethoxyphenyl)sulfonyl)-3-methoxybenzamide], the IC50 was determined as 6 nM.
With `COc1cc(C(=O)NS(=O)(=O)c2c(OC)cccc2OC)ccc1Cn1cccn1` [Compound 14, 4-((1H-pyrazol-1-yl)methyl)-N-((2,6-dimethoxyphenyl)sulfonyl)-3-methoxybenzamide], the IC50 was found to be 32 nM.
On to `COc1ccc(C)cc1S(=O)(=O)NC(=O)c1ccc(Cn2cccn2)c(OC)n1` [Compound 214, 5-((1H-pyrazol-1-yl)methyl)-6-methoxy-N-((2-methoxy-5-methylphenyl)sulfonyl)picolinamide], for which the half-maximal inhibitory concentration (IC50) was 12 nM.
For `COc1cc(C(=O)N[S@@](=N)(=O)c2c(OC)ccc(C)c2OC)ccc1Cn1cccn1` [Compound 304a, (R)-4-((1H-pyrazol-1-yl)methyl)-N-(2,6-dimethoxy-3-methylphenylsulfonimidoyl)-3-methoxybenzamide], the IC50 is 18 nM.
As to `COc1cc(C(=O)NS(=O)(=O)c2ccc3c(c2)CCO3)ccc1Cn1cccn1` [Compound 310, 4-((1H-pyrazol-1-yl)methyl)-N-((2,3-dihydrobenzofuran-5-yl)sulfonyl)-3-methoxybenzamide], the IC50 turned out to be 112 nM.
Same read-out and setting: for `COc1ccc(S(=O)(=O)NC(=O)c2ccc(Cn3cccn3)c(OC)n2)c(OC)c1` [Compound 226, 5-((1H-pyrazol-1-yl)methyl)-N-((2,4-dimethoxyphenyl)sulfonyl)-6-methoxypicolinamide] the value was 27 nM.
Still for that read-out and setting: for `COc1cc(OC)c(S(=O)(=O)NC(=O)c2ccc(Cn3cccn3)c(OC)n2)c2c1CCO2` [Compound 253, 5-((1H-pyrazol-1-yl)methyl)-N-((4,6-dimethoxy-2,3-dihydrobenzofuran-7-yl)sulfonyl)-6-methoxypicolinamide] the value was 9 nM; for `COc1cccc(OC)c1[S@@](=N)(=O)NC(=O)c1ccc(Cn2cccn2)c(OC(F)(F)F)c1` [Compound 300b, (S)-4-((1H-pyrazol-1-yl)methyl)-N-(2,6-dimethoxyphenylsulfonimidoyl)-3-(trifluoromethoxy)benzamide], 18 nM.
On the same count and under the same terms, as for `CCC(C)(O)c1ccc(OC)c(S(=O)(=O)NC(=O)c2ccc(Cn3cccn3)c(OC)n2)c1` (centres unmarked) [Compound 239, 5-((1H-pyrazol-1-yl)methyl)-N-((5-(2-hydroxybutan-2-yl)-2-methoxyphenyl)sulfonyl)-6-methoxypicolinamide], the figure is 12 nM; as for `CCc1ccc(OC)c(S(=O)(=O)NC(=O)c2cc(OC)c(Cn3cccn3)cn2)c1` [Compound 210, 5-((1H-pyrazol-1-yl)methyl)-N-((5-ethyl-2-methoxyphenyl)sulfonyl)-4-methoxypicolinamide], 64 nM; as for `COc1cc(OC)c(S(=O)(=O)NC(=O)c2ccc(Cn3cccn3)c(OC)n2)c(OC)c1` [Compound 224, 5-((1H-pyrazol-1-yl)methyl)-6-methoxy-N-((2,4,6-trimethoxyphenyl)sulfonyl)picolinamide], 11 nM.
As for `COc1ccc(C)c(OC)c1[S@](=N)(=O)NC(=O)c1ccc(Cn2cccn2)c(OC)n1` [Compound 301a, (R)-5-((1H-pyrazol-1-yl)methyl)-N-(2,6-dimethoxy-3-methylphenylsulfonimidoyl)-6-methoxypicolinamide], the IC50 worked out at 313 nM.
On the same count and under the same terms, as for `COc1cc(C(=O)NS(=O)(=O)c2ccc(C(F)(F)F)cc2OC)ccc1Cn1cccn1` [Compound 31, 4-((1H-pyrazol-1-yl)methyl)-3-methoxy-N-((2-methoxy-4-(trifluoromethyl)phenyl)sulfonyl)benzamide], the figure is 44 nM.
The same measure, in the same setting: for `COc1ccc(C(C)(C)O)cc1S(=N)(=O)NC(=O)c1ccc(Cn2cccn2)c(OC)n1` (racemic) [Compound 297, 5-((1H-pyrazol-1-yl)methyl)-N-(5-(2-hydroxypropan-2-yl)-2-methoxyphenylsulfonimidoyl)-6-methoxypicolinamide] the value was 39 nM; for `COc1ccc(C(C)(C)C)cc1S(=O)(=O)NC(=O)c1ccc(Cn2cccn2)c(Br)c1` [Compound 16, 4-((1H-pyrazol-1-yl)methyl)-3-bromo-N-((5-(tert-butyl)-2-methoxyphenyl)sulfonyl)benzamide], 26 nM; for `COc1cccc(OC)c1S(=O)(=O)NC(=O)c1ccc(Cn2cccn2)c(C)c1` [Compound 34, 4-((1H-pyrazol-1-yl)methyl)-N-((2,6-dimethoxyphenyl)sulfonyl)-3-methylbenzamide], 36 nM.
Still for that read-out and setting: for `COc1ccc(C(C)(C)CO)cc1[S@@](=N)(=O)NC(=O)c1ccc(Cn2cccn2)c(OC)n1` [Compound 290b, (S)-5-((1H-pyrazol-1-yl)methyl)-N-(5-(1-hydroxy-2-methylpropan-2-yl)-2-methoxyphenylsulfonimidoyl)-6-methoxypicolinamide] the value was 33 nM.
In the case of `COc1cccc(OCC2CC2)c1S(=O)(=O)NC(=O)c1ccc(Cn2cccn2)c(OC)n1` [Compound 245, 5-((1H-pyrazol-1-yl)methyl)-N-((2-(cyclopropylmethoxy)-6-methoxyphenyl)sulfonyl)-6-methoxypicolinamide], the IC50 was 12 nM.
On the same count and under the same terms, as for `COc1cc(C(=O)NS(=O)(=O)c2cccc3c2OC(C)C3)ccc1Cn1cccn1` (centres unmarked) [Compound 314, 4-((1H-pyrazol-1-yl)methyl)-3-methoxy-N-((2-methyl-2,3-dihydrobenzofuran-7-yl)sulfonyl)benzamide], the figure is 13 nM; as for `COc1cc(Cn2cccn2)ccc1C(=O)NS(=O)(=O)c1ccc(C(C)(C)C)cc1OC` [Compound 11, 4-((1H-pyrazol-1-yl)methyl)-N-((4-(tert-butyl)-2-methoxyphenyl)sulfonyl)-2-methoxybenzamide], 500 nM.
Still for that read-out and setting: as for `COc1cc(C(=O)NS(=O)(=O)c2cc(C(C)(C)O)ccc2OC)ccc1Cn1cccn1` [Compound 54, 4-((1H-pyrazol-1-yl)methyl)-N-((5-(2-hydroxypropan-2-yl)-2-methoxyphenyl)sulfonyl)-3-methoxybenzamide], the figure is 3 nM; as for `COc1cc(C(=O)NS(=O)(=O)c2cc3c(cc2OC)CCC3)ccc1Cn1cccn1` [Compound 27, 4-((1H-pyrazol-1-yl)methyl)-3-methoxy-N-((6-methoxy-2,3-dihydro-1H-inden-5-yl)sulfonyl)benzamide], 12 nM; as for `CCc1ccc(OC)c(S(=O)(=O)NC(=O)c2ccc(Cn3cccn3)c(OC)c2)c1` [Compound 30, 4-((1H-pyrazol-1-yl)methyl)-N-((5-ethyl-2-methoxyphenyl)sulfonyl)-3-methoxybenzamide], 11 nM.
